From patent US12325646B2, “Fertigation water treatment” (UNIVERSITY OF GUELPH, priority 2019, dated 2025)
In brackets after ≈: the same amount, converted by molar mass. Several values for one entry are separate records, joined by “and”; a condition that tells them apart may be missing. Identical values can stand only once. Entries after “also recorded” stand apart in the source; their conditions may differ. Like-named read-outs stand apart in the source and are kept apart here.

Experiments:
[1] = Electrochemical treatment of chemical standards in batch cell (DSA or BDD anodes); assay type: physicochemical; design: reduction of compound in solution: concentration or dose not given beside the values; conditions: for NPOC decrease / TN decrease: 2.27 mA/cm^2, up to 6-minute contact time, batch cell, 20 mg/L chloride
Method: Initial water treatment was performed by treating the solution by batch cell using the DSA and BDD anodes, as well as stainless steel (SS) cathodes. The experiment used a 2 L beaker and filled the beaker with 1.8 L of deionized water and dissolved the chemical standards glyphosate (45521, Sigma-Aldrich, USA) or paclobutrazol (46046, Sigma-Aldrich, USA) for separate treatments. The solution was constantly mixed using a magnetic stirrer (220T, Fisher Scientific, Canada) and bar during treatment with chemical standards. Samples containing glyphosate and paclobutrazol standards were submitted to the Agriculture and Food Laboratory (University of Guelph) to quantify samples using LC-MS/MS. The mean quantifiable limit for the analytical method was 8 μg/L for glyphosate, AMPA, and paclobutrazol. The non-purgeable organic carbon (NPOC) and total nitrogen (TN) of the solution were determined using a Shimadzu TOC-Vpn & TNM-1 analyzer. A calibration curve (R^2=0.99) was produced before performing the sample analysis using TOC and TN standards.
The degradation of both glyphosate (8.5 mg/L) and paclobutrazol (12 mg/L) was conducted with the use of electrochemical systems for a direct comparison on their efficacies in a batch cell configuration. […] The NPOC and TN had larger decreases between the 3 and 6-minute contact time with the DSA electrodes for glyphosate, while the changes were more subtle using BDD electrodes.

Lemna minor [2] = experiment: Water treatment of commercial pesticide solutions in the EFC followed by Lemna minor growth test; assay type: in vivo
Lemna minor [3] = experiment: Lemna minor bioassay (dose-response, 7-day growth); assay type: in vivo; conditions: for EC50: 168 h, read-out: EC50 dose from dose-response analysis of Lemna minor growth
Source text: A sterile culture of Lemna minor was obtained from the laboratory of Dr. Ryan Prosser (University of Guelph, School of Environmental Science). The culture was transferred to a 1 L Erlenmeyer flask containing a ½ strength Hoagland solution. The cultures were transferred to a growth chamber and were left for a growing period of 7 days. After the growth period, the Erlenmeyer flasks were brought to the lab to use the healthy plants for bioassay and water treatment experiments.
The temperature and humidity sensors were built in house by the Controlled Environment Systems Research Facility (CESRF) at the University of Guelph. The growth chamber conditions for humidity and temperature were recorded using an Acer Aspire 7750 laptop (P7YEO, Acer, Taiwan) and using the Termite software for data logging (version 3.4). The temperature was maintained at 25.68±0.02° C. and the relative humidity was 38.34±0.05%. Lumigrow pro 325 LED lights (LU60001, Lumigrow, USA) were used at a 80:10:10 ratio of Red:Blue:White as overhead lighting for plants (FIGS. 38A & 38B). Furthermore, a grid system inside the growth chamber with 36 grid boxes were used to place Erlenmeyer flasks in a completely randomized design (FIG. 38C). Each ‘grid’ was measured for photosynthetically active radiation (PAR) using a modular spectrometer (USB2000+, Ocean Optics Inc., USA). This allowed to account for random differences attributed to light intensity within the growth chamber. A heat map is generated with this information and in the middle of the ‘grid box’ there was a maximum intensity of […] (FIG. 39).
The analysis of dose-response curves for affecting the growth of Lemna minor was determined using the ‘drc’ package (v. 3.0-1, Christian Ritz, 2016) in the statistical program RStudio (v. 1.0.153, RStudio Inc., USA). The program was used to determine the EC 50 for each measured parameter for plant health and reproduction of the number of plants, number of fronds, and the dry weights of plants contained in each flask.
All solutions were treated with the four different water treatment methods and 75 mL of effluent solution was collected and added in 250 mL Erlenmeyer flasks. Negative control samples only contained 75 mL of deionized water, while all other treatments (positive control, Ozone, AOP, DSA, and BDD) contained 75 mL of the treated and non-treated solution. In a separate 3-litre beaker, a full-strength Hoagland solution was prepared and mixed with a magnetic stirrer (220T, Fisher Scientific, Canada). For each of the Erlenmeyer flasks containing the treated solutions, 75 mL of the Hoagland solution was added into each flask. […] Lemna minor that were previously cultured and acclimated to the ‘Grid box’ were then added to each flask. Two Lemna minor plants with three fronds each were added to flasks for the experiment. All 5 treatments contained 3 Erlenmeyer flasks giving a total of […] and the experiment was performed in triplicate. All of the flasks were placed at random inside the growth chamber within each grid and recorded their location. The pH and electrical conductivity of the solutions were also measured after the 7-day growth period.
Significant differences were only observed at the concentration of 15 mg/L of glyphosate for the final number of fronds and the dry weight of plants (FIGS. 41A & 41B). […] Noticeable differences such as the number of plants, lighter colour of fronds, and spindly roots can be visualized in comparison with the control (FIG. 42A) to the presence of 15 mg/L of glyphosate (FIG. 42B).

[4] = BDD electrodes, 2.27 mA/cm^2, 6-minute contact time, LC-MS/MS
[5] = DSA electrodes, 2.27 mA/cm^2, 6-minute contact time, LC-MS/MS

SMILES | reduction of compound in solution [1, 4] | NPOC decrease ([1]; BDD electrodes) | TN decrease ([1]; BDD electrodes) | NPOC decrease ([1]; BDD electrodes, listed as Glyphosate) | level remaining in solution after treatment (below detection limit) [1, 5] | NPOC decrease ([1]; DSA electrodes) | TN decrease ([1]; DSA electrodes) | concentration remaining after treatment, inferred from plant growth (Lemna minor [2]; Roundup, 7 mg/L glyphosate, DSA electrodes, 2.27 mA/cm^2, 1-minute contact time) | concentration with significant differences in final number of fronds and dry weight of plants (Lemna minor [3]; Glyfos, 7 days growth) | EC50 (Lemna minor [3]; Lemna minor) | increase of AMPA in glyphosate solution ([1]; BDD electrodes, 2.27 mA/cm^2, 0 to 6-minute contact time) | AMPA concentration after treatment of glyphosate solution ([1]; BDD electrodes, 2.27 mA/cm^2, 6 minutes, increased from 0.009) | reduction of compound in solution [1, 5] | concentration remaining after treatment, inferred from plant growth parameters (Lemna minor [2]; Bonzi, 3 mg/L paclobutrazol, BDD electrodes, recirculated 3 passes, 18 minutes total contact) | EC50 (Lemna minor [3]; Lemna minor, 7 days in growth chamber, glyphosate as Glyfos, paclobutrazol as Bonzi, drc package) | LOEC levels (Lemna minor [3]; Lemna minor, in vivo, 7 days) | concentration with significant differences for all measured parameters in the health of Lemna minor (Lemna minor [3]; Lemna minor, in vivo, 7 days) | effect on plant physiological and reproductive health parameters vs control (Lemna minor [3]; in vivo)
O=C(O)CNCP(=O)(O)O [glyphosate, N-(phosphonomethyl)glycine] | 72.47% and 72% | 19.73% | 32.61% and 32% | 20% | < 8 ng/mL | 16.18% and 16% | 85.97% and 86% | lower than 2.5 mg/L | 15000 ng/mL | ~9 µg/mL (≈ 53.2 µM) | – | – | – | – | – | – | – | –
NCP(=O)(O)O [AMPA, aminomethylphosphonic acid] | – | – | – | – | – | – | – | – | – | – | 0.10 mg/L | 0.11 mg/L | – | – | – | – | – | –
CC(C)(C)[C@@H](O)[C@@H](Cc1ccc(Cl)cc1)n1cncn1 (racemic) [paclobutrazol] | 80.94% and 81% | 18.41% and 18% | 22.58% and 23% | – | – | unaffected; also recorded: no significant effect | 7.12% and 7% | – | – | – | – | – | 28.29% and 28% | lower than 0.05 mg/L | 0.01 µg/mL (≈ 0.034 µM) | 0.01 mg/L | 50 ng/mL | Significant decreases were observed for all tested concentrations
